# In patent US5219870A, “Omeprazole compositions designed for administration in rectum” (priority 1990, dated 1993):
# “And” between values parts separate entries of the source, which are not always exact repeats. Identical values can stand only once. Like-named read-outs stand apart in the source and are kept apart here.
# Key:
# [1] = Animal Experiment: serum concentration and bioavailability of OMP in rabbits (I.V., oral, rectum); format: in vivo, albino rabbits; conditions: 10 mg/kg; for bioavailability: BA (bioavailability)
# Method: Using the same method as in Reference 1, one composition using water-Soluble base was manufactured by the following formula; 20 mg OMP. 10 mg arginine and 970 mg PEG 4000, and another composition using lipid-soluble base was manufactured by the following formula; 20 mg OMP, 10 mg arginine and 970 mg Witepsol H-15.
# Object: 36 male healthy albino rabbits weighing 1.5-2.3 kg.
# Method: before fasting, feed and water were freely provided for eating and rabbits were confined to a wire-box while giving them feed in a constant condition for 4 days. After that, their fasting was made for 48 hours (during the fasting, the rabbits could freely drink 10% dextrose solution.)
# For comparison test, 4 mg/ml I.V. solution was manufactured in advance by mixing 400 mg OMP, 20 ml polyethylene glycol 4000, and 80 ml buffer solution of 0.1 mol sodium bicarbonate. 5 ml solution per rabbit was administered to its ear's vein.
# Then, through the esophagus of rabbit, Levine tube in diameter of 5 mm was inserted by 30 cm for administering oral OMP capsules wrapped in paraffin film. To reduce friction, vaseline was applied around the surface of the tube and through a syringe connected to the opposite end of the tube, 30 ml water was injected and, by the water pressure, paraffin film was broken to administer the capsule into intestine.
# As the feces of the rabbit were not completely removable even in 48-hour fasting, Levine tube having a thickness of 5 mm was used to thrust feces up to the upper part of rectum by 15 cm for the separate of administration of said two kinds of compositions. Then, inserted into the anus, was a cotton wrapped in vinyl tape having a length of 2 cm, fixed it with a clip so as to prevent any leaking of drug solution.
# By using xylene, the venous blood vessel of rabbit's ear was extended to collect some venous blood with a heparinized 3 cc syringe. Said syringe was already treated by soaking its wall with 1000 I.U. heparin. Then, 3 cc of said collected blood sample (10,000 rpm, 10 secs) was centrigued to obtain 1 ml plasma.
# Add 1 ml of said plasma sample to […] intra-standard solution, 3 ml dichloromethane, 3 ml hexaine and 2 ml of 0.1 mol sodium bicarbonate buffer solution. Then, after agitation for 30 secs, centrifuge this mixture in 2000 rpm for 5 mins to separate into organic layer (upper layer) and plasma layer (lower layer).
# Put the centrifuged test tube into ice-contained methanol to freeze the plasma layer. Thereafter, take 5 ml organic solvent from the said solution and, under reduced pressure, evaporate the organic solvent by nitrogen gas. Then add 300 μl mobile phase into the residue and after agitation for 30 secs again, centrifuge the mixture in 2000 rpm for 2 mins and conduct the assay by the HPLC analysis (injected 50 μl) through the comparison of height ratio with standard solution.
# Cmax is a peak serum concentration;
# AUC is an area under the curve describing serum concentration-time; and […]
# [2] = cited from earlier work
# [3] = OMP Stability Based Upon Kinds of Stabilizer (colour change under severe condition); format: physicochemical; conditions: Reference 2 result in words
# Source text: As shown in the following table 2, PEG 4000 and Witepsol H-15 were used as bases for the manufacture of said composition; as a basic amino acid, arginine was used. The stability of said manufactured compositions was observed under a severe condition. As a diffusing medium, micro crystalline cellulose (brandname: Avicel) was used, while using sodium laurylsulfate as a releasing agent.
# [4] = OMP Stability Based Upon Kinds of Base (colour change at room temperature); conditions: Reference 1 result in words
# [5] = rabbit, in vivo, po, serum concentration
compound,measurement,setting,value
"COc1ccc2[nH]c([S+]([O-])Cc3ncc(C)c(OC)c3C)nc2c1 (centres unmarked) [OMP, Omeprazole]",serum concentration,"[1]; I.V., 20 mg OMP per 2 kg, 1 min, individual animals",110.0 µg/mL and 100.0 µg/mL and 91.5 µg/mL and 99.0 µg/mL
same,serum concentration,"[1]; I.V., 20 mg OMP per 2 kg, 5 min, individual animals",47.8 µg/mL and 63.3 µg/mL and 58.7 µg/mL and 56.5 µg/mL
same,serum concentration,"[1]; I.V., 20 mg OMP per 2 kg, 15 min, individual animals",23.8 µg/mL and 36.8 µg/mL and 24.5 µg/mL
same,serum concentration,"[1]; I.V., 20 mg OMP per 2 kg, 30 min, individual animals",21.0 µg/mL and 16.7 µg/mL and 16.2 µg/mL
same,serum concentration,"[1]; I.V., 20 mg OMP per 2 kg, 60 min, individual animals",9.1 µg/mL and 11.7 µg/mL and 6.5 µg/mL
same,serum concentration,"[1]; I.V., 20 mg OMP per 2 kg, 120 min, individual animals",4.6 μg/ml and 4.2 μg/ml and 4.4 μg/ml (2×)
same,serum concentration,"[1]; I.V., 20 mg OMP per 2 kg, 180 min, individual animals",2.2 µg/mL and 2.1 µg/mL and 2.0 µg/mL
same,serum concentration,"[1]; oral, 20 mg OMP per 2 kg, 1 hr, individual animals, 60 min",0.300 µg/mL and 0.492 µg/mL and 0.270 µg/mL and 0.295 µg/mL
same,serum concentration,"[1]; oral, 20 mg OMP per 2 kg, 4 hr, individual animals, 240 min",0.375 µg/mL and 0.376 µg/mL
same,serum concentration,"[1]; oral, 20 mg OMP per 2 kg, 5 hr, individual animals, 300 min",0.432 µg/mL
same,serum concentration,"[1]; oral, 20 mg OMP per 2 kg, 7 hr, individual animals, 420 min",0.450 µg/mL and 0.409 µg/mL and 0.506 µg/mL and 0.400 µg/mL
same,serum concentration,"[1]; oral, 20 mg OMP per 2 kg, 9 hr, individual animals, 540 min",0.360 µg/mL and 0.373 µg/mL and 0.365 µg/mL
same,serum concentration,"[1]; oral, 20 mg OMP per 2 kg, 11 hr, individual animals, 660 min",0.038 µg/mL and 0.070 µg/mL and 0.171 µg/mL and 0.176 µg/mL and 0.053 µg/mL
same,Tmax,"[1]; oral, 20 mg OMP per 2 kg, individual animals",5 h
same,AUC,"[1]; rabbit, in vivo, iv",33200 ng·h/mL
same,AUC,"[1]; rabbit, in vivo, iv, average",35200 ng·h/mL
same,concentration at 0.25 h,"[1]; rabbit, in vivo, iv, serum concentration",16400 ng/mL
same,serum concentration,"[1]; rabbit, in vivo, po, 4 h",0.531 µg/mL
same,AUC,"[1]; rabbit, in vivo, po",6070 ng·h/mL
same,AUC,"[1]; rabbit, in vivo, po, average",5980 ng·h/mL
same,bioavailability,"[1]; rabbit, in vivo, po",17.2%
same,bioavailability,"[1]; rabbit, in vivo, po, average",17%
same,Cmax,"[1]; rabbit, in vivo, po",591 ng/mL
same,Cmax,"[1]; rabbit, in vivo, po, average",598 ng/mL
same,concentration at 4 h,[1]; [5],591 ng/mL
same,concentration at 5 h,[1]; [5],527 ng/mL
same,concentration at 9 h,[1]; [5],356 ng/mL
same,concentration at 1 min,"[1]; rabbit, serum, iv, I.V., 20 mg OMP per 2 kg, 1 min, average, read-out: serum concentration, average",101000 ng/mL
same,concentration at 1 min,"[1]; rabbit, serum, iv, I.V., 20 mg OMP per 2 kg, 1 min, individual animals, read-out: serum concentration",104000 ng/mL
same,concentration at 5 min,"[1]; rabbit, serum, iv, I.V., 20 mg OMP per 2 kg, 5 min, average, read-out: serum concentration, average",54400 ng/mL
same,concentration at 5 min,"[1]; rabbit, serum, iv, I.V., 20 mg OMP per 2 kg, 5 min, individual animals, read-out: serum concentration",45900 ng/mL
same,concentration at 0.25 h,"[1]; rabbit, serum, iv, I.V., 20 mg OMP per 2 kg, 15 min, average, read-out: serum concentration, average",25600 ng/mL
same,concentration at 0.25 h,"[1]; rabbit, serum, iv, I.V., 20 mg OMP per 2 kg, 15 min, individual animals, read-out: serum concentration",26400 ng/mL
same,concentration at 0.5 h,"[1]; rabbit, serum, iv, I.V., 20 mg OMP per 2 kg, 30 min, average, read-out: serum concentration, average",16700 ng/mL
same,concentration at 0.5 h,"[1]; rabbit, serum, iv, I.V., 20 mg OMP per 2 kg, 30 min, individual animals, read-out: serum concentration",12800 ng/mL
same,concentration at 1 h,"[1]; rabbit, serum, iv, I.V., 20 mg OMP per 2 kg, 60 min, average, read-out: serum concentration, average",8800 ng/mL
same,concentration at 1 h,"[1]; rabbit, serum, iv, I.V., 20 mg OMP per 2 kg, 60 min, individual animals, read-out: serum concentration",7800 ng/mL
same,concentration at 2 h,"[1]; rabbit, serum, iv, I.V., 20 mg OMP per 2 kg, 120 min, average, read-out: serum concentration, average",4700 ng/mL
same,concentration at 2 h,"[1]; rabbit, serum, iv, I.V., 20 mg OMP per 2 kg, 120 min, individual animals, read-out: serum concentration",5800 ng/mL
same,concentration at 3 h,"[1]; rabbit, serum, iv, I.V., 20 mg OMP per 2 kg, 180 min, average, read-out: serum concentration, average",2100 ng/mL
same,concentration at 3 h,"[1]; rabbit, serum, iv, I.V., 20 mg OMP per 2 kg, 180 min, individual animals, read-out: serum concentration",2000 ng/mL
same,concentration at 11 h,"[1]; rabbit, serum, po, 20 mg OMP per 2 kg, 11 hr, average",102 ng/mL
same,concentration at 1 h,"[1]; rabbit, serum, po, oral, 20 mg OMP per 2 kg, 1 hr, average, read-out: serum concentration, average",330 ng/mL
same,concentration at 1 h,"[1]; rabbit, serum, po, oral, 20 mg OMP per 2 kg, 1 hr, individual animals, read-out: serum concentration",293 ng/mL
same,concentration at 2 h,"[1]; rabbit, serum, po, oral, 20 mg OMP per 2 kg, 2 hr, average, read-out: serum concentration, average",455 ng/mL
same,concentration at 2 h,"[1]; rabbit, serum, po, oral, 20 mg OMP per 2 kg, 2 hr, individual animals, read-out: serum concentration",369 ng/mL
same,concentration at 3 h,"[1]; rabbit, serum, po, oral, 20 mg OMP per 2 kg, 3 hr, average, read-out: serum concentration, average",413 ng/mL
same,concentration at 3 h,"[1]; rabbit, serum, po, oral, 20 mg OMP per 2 kg, 3 hr, individual animals, read-out: serum concentration",425 ng/mL
same,concentration at 4 h,"[1]; rabbit, serum, po, oral, 20 mg OMP per 2 kg, 4 hr, average, read-out: serum concentration, average",477 ng/mL
same,concentration at 4 h,"[1]; rabbit, serum, po, oral, 20 mg OMP per 2 kg, 4 hr, individual animals, read-out: serum concentration",410 ng/mL
same,concentration at 5 h,"[1]; rabbit, serum, po, oral, 20 mg OMP per 2 kg, 5 hr, average, read-out: serum concentration, average",550 ng/mL
same,concentration at 5 h,"[1]; rabbit, serum, po, oral, 20 mg OMP per 2 kg, 5 hr, individual animals, read-out: serum concentration",447 ng/mL
same,concentration at 7 h,"[1]; rabbit, serum, po, oral, 20 mg OMP per 2 kg, 7 hr, average, read-out: serum concentration, average",457 ng/mL
same,concentration at 7 h,"[1]; rabbit, serum, po, oral, 20 mg OMP per 2 kg, 7 hr, individual animals, read-out: serum concentration",521 ng/mL
same,concentration at 9 h,"[1]; rabbit, serum, po, oral, 20 mg OMP per 2 kg, 9 hr, average, read-out: serum concentration, average",357 ng/mL
same,concentration at 9 h,"[1]; rabbit, serum, po, oral, 20 mg OMP per 2 kg, 9 hr, individual animals, read-out: serum concentration",341 ng/mL
same,Tmax,"[1]; rabbit, serum, po, oral, 20 mg OMP per 2 kg, individual animals, read-out: Tmax",4 h
same,half life,[2]; neutral pH,about 14 hrs
same,decomposition,[2]; pH less than 4.0,rapid decomposition
same,stability,[2]; pH more than 7.0,very stable
N=C(N)NCCC[C@H](N)C(=O)O [arginine],stabilizing effect,[3],better stabilizing effect than sodium phosphate
same,stability / contribution to stabilization,[4],stability was more increased
